Molecules are shown by their SMILES.

Data set [1] deals with inactivated state of the channel of interest (sodium channel). Kind of data set: Electrophysiological assay (whole cell voltage clamp). The following applies: affinity for the inactivated state of the channel. The data set is classed as cell-based. The procedure:
Cells expressing the channel of interest are cultured in DMEM growth media (Gibco) with 0.5 mg/mL G418, +/−1% PSG, and 10% heat-inactivated fetal bovine serum at 37° C. and 5% CO2. For electrophysiological recordings, cells are plated on 10 mm dishes.
Whole cell recordings are examined by established methods of whole cell voltage clamp (Bean et al., op. cit.) using an Axopatch 200B amplifier and Clampex software (Axon Instruments, Union City, Calif.). All experiments are performed at ambient temperature. Electrodes are fire-polished to resistances of 2-4 Mohms Voltage errors and capacitance artifacts are minimized by series resistance compensation and capacitance compensation, respectively. Data are acquired at 40 kHz and filtered at 5 kHz. The external (bath) solution consists of: NaCl (140 mM), KCl (5 mM), CaCl2 (2 mM), MgCl2 (1 mM), HEPES (10 mM) at pH 7.4. The internal (pipette) solution consists of (in mM): NaCl (5), CaCl2 (0.1), MgCl2 (2), CsCl (10), CsF (120), HEPES (10), EGTA (10), at pH 7.2.
To estimate the steady-state affinity of compounds for the resting and inactivated state of the channel (Kr and Ki, respectively), 12.5 ms test pulses to depolarizing voltages from −60 to +90 m V from a holding potential of −120 m V is used to construct current-voltage relationships (I-V curves). A voltage near the peak of the IV-curve (−30 to 0 m V) is used as the test pulse throughout the remainder of the experiment. Steady-state inactivation (availability) curves are then constructed by measuring the current activated during a 8.75 ms test pulse following 1 second conditioning pulses to potentials ranging from −120 to −10 mV.
The steady-state voltage-dependence of binding of a compound to a sodium channel is determined by measuring the blockage of the ionic current at two holding potentials. Binding to rested-state channels is determined by using a holding potential of −120 mV, so that maximal availability is achieved. Binding to inactivated-state channels is evaluated at a holding potential such that only 10% of the channels are available to open. The membrane potential is held at this voltage for at least 10 seconds so that drug binding can equilibrate.
The apparent dissociation constant at each voltage is calculated with the equation:
[formula] where Kd is the dissociation constant (either Kr or Ki), and [Drug] is the concentration of the test compound.
The Example numbers provided in Table 3 correspond to the Examples herein: […]

The target in another data set is T1, CYP3A4 (Homo sapiens, UniProt P08684).
T1 construct: purchased Invitrogen Corporation (Vivid CYP450 Screening Kit)
Kind of data set: Cytochrome P450 (CYP450) inhibition assay, fluorescence-based. The data set is classed as in vitro ADME. The settings on record: recombinant CYP3A4 (P450 Baculosomes), probe Vivid substrate (fluorogenic).

In a further data set the test system is sodium channel. Kind of data set: Guanidine influx assay. The data set is classed as cell-based, human or rat. The following applies: known cell line that expresses a sodium channel; read-out: IC50 Activity Level. The text has this: This example describes an in vitro assay for testing and profiling test agents against human or rat sodium channels stably expressed in cells of either an endogenous or recombinant origin. The assay is also useful for determining the IC50 of a sodium channel blocking compound. The assay is based on the guanidine flux assay described by Reddy, N. L., et al., J. Med. Chem. (1998), 41(17):3298-302.
The guanidine influx assay is a radiotracer flux assay used to determine ion flux activity of sodium channels in a high-throughput microplate-based format. The assay uses ^14C-guanidine hydrochloride in combination with various known sodium channel modulators, to assay the potency of test agents. Potency is determined by an IC50 calculation. Selectivity is determined by comparing potency of the compound for the channel of interest to its potency against other sodium channels (also called ‘selectivity profiling’).
Each of the test agents is assayed against cells that express the channels of interest. Voltage gated sodium channels are either TTX sensitive or insensitive. This property is useful when evaluating the activities of a channel of interest when it resides in a mixed population with other sodium channels. The following Table 1 summarizes cell lines useful in screening for a certain channel activity in the presence or absence of TTX.
It is also possible to employ recombinant cells expressing these sodium channels. Cloning and propagation of recombinant cells are known to those skilled in the art (see, for example, Klugbauer, N, et al., EMBO J. (1995), 14(6):1084-90; and Lossin, C., et al., Neuron (2002), 34, pp. 877-884).
Cells expressing the channel of interest are grown according to the supplier or in the case of a recombinant cell in the presence of selective growth media such as G418 (Gibco/Invitrogen). The cells are disassociated from the culture dishes with an enzymatic solution (1×) Trypsin/EDTA (Gibco/Invitrogen) and analyzed for density and viability using haemocytometer (Neubauer). Disassociated cells are washed and resuspended in their culture media then plated into Scintiplates (Beckman Coulter Inc.) (approximately 100,000 cells/well) and incubated at 37° C./5% CO2. for 20-24 hours. After an extensive wash with Low sodium HEPES-buffered saline solution (LNHBSS) (150 mM Choline Chloride, […] (Sigma), 1 mM Calcium Chloride, 5 mM Potassium Chloride, 1 mM Magnesium Chloride, 10 mM Glucose) agents diluted with LNHBSS are added to each well. (Varying concentrations of test agent may be used). The activation/radiolabel mixture contains aconitine (Sigma) to increase the percentage of time that the sodium channels are open, and ^14C-guanidine hydrochloride (ARC) to measure flux through the voltage-gated sodium channels.
After loading the cells with test agent and activation/radiolabel mixture, the Scintiplates are incubated at ambient temperature. Following the incubation, the Scintplates are extensively washed with LNHBSS supplemented with guanidine (Sigma). The Scintiplates are dried and then counted using a Wallac MicroBeta TriLux (Perkin-Elmer Life Sciences). The ability of the test agent to block sodium channel activity is determined by comparing the amount of ^14C-guanidine present inside the cells expressing the different sodium channels.
The IC50 value of a test agent for a specific sodium channel may be determined using the above general method. […] Typically the mid-point concentration of test agent is set at 1 μM, and sequential concentrations of half dilutions greater or smaller are applied (e.g. 0.5 μM; 5 μM and 0.25 μM; 10 μM and 0.125 μM; 20 μM etc.). The IC50 curve is calculated using the 4 Parameter Logistic Model or Sigmoidal Dose-Response Model formula (fit=(A+((B−A)/(1+((C/x)^D)))).
The fold selectivity, factor of selectivity or multiple of selectivity, is calculated by dividing the IC50 value of the test sodium channel by the reference sodium channel, for example, NaV1.5. […]

In another data set the target is SK-N-BE2C (Nav1.8) (Homo sapiens, UniProt Q9Y5Y9). The data set is classed as cell-based.
The test system of data set [2] is SH-SY5Y (Nav1.9 and Nav1.7). The data set is classed as cell-based, Human.
In a further data set the target is CHO-K1 (Nav1.4) (Cricetulus griseus, UniProt A0A9J7H6F9). It is filed as cell-based, Chinese Hamster.
In a further data set the test system is L6 (Nav1.4 and 1.5). The data set is classed as cell-based, rat.
The next data set concerns the target PC12 (Nav1.2) (Rattus norvegicus, UniProt P04775).
A further data set deals with CYP2C19 (Homo sapiens, UniProt P33261).
For the next data set, the target named is CYP2C9 (Homo sapiens, UniProt P11712).
Sequence of CYP2C9 (P11712 whole entry): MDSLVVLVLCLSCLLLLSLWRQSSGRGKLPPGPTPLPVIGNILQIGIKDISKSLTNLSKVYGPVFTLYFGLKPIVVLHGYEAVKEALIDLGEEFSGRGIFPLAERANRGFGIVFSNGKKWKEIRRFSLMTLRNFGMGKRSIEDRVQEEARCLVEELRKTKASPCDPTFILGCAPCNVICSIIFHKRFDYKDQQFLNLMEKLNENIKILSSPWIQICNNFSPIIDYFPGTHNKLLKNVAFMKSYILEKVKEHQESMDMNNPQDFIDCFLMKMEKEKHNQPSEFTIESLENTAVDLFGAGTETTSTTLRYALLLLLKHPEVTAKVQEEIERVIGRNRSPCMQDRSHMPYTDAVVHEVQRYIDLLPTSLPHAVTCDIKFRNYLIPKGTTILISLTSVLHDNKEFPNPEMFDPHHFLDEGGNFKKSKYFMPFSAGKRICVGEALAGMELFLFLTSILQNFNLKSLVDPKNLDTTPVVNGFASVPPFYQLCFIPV

T1 sequence (P08684 whole entry): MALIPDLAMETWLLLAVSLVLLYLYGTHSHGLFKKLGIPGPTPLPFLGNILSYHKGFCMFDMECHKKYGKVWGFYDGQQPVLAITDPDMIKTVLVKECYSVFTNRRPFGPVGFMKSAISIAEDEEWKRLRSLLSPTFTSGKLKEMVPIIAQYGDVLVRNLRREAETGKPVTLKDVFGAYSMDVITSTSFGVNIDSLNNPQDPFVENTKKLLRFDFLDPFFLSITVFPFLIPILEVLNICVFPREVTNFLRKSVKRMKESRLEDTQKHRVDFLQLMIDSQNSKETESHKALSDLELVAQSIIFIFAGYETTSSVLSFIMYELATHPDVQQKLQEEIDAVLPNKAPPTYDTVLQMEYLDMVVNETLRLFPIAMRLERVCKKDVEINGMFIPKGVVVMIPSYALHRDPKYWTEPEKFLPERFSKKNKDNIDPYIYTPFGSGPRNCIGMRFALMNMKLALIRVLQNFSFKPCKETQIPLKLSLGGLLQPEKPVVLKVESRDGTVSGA
Sequence of CYP2C19 (P33261 whole entry): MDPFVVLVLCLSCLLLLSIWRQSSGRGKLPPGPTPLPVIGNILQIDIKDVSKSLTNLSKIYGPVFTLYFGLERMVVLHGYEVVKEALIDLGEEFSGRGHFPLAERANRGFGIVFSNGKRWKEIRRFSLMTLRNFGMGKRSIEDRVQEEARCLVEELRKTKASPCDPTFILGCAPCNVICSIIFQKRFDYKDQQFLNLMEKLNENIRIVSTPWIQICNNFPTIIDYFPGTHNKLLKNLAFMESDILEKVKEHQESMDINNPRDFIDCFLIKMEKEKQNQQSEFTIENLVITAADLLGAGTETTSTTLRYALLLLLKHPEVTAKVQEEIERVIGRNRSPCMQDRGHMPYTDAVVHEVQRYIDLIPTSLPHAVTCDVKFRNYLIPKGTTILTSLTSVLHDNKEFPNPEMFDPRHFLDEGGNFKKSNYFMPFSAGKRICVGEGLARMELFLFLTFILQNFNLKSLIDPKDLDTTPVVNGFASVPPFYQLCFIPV
Sequence of CHO-K1 (Nav1.4) (A0A9J7H6F9 1-1930): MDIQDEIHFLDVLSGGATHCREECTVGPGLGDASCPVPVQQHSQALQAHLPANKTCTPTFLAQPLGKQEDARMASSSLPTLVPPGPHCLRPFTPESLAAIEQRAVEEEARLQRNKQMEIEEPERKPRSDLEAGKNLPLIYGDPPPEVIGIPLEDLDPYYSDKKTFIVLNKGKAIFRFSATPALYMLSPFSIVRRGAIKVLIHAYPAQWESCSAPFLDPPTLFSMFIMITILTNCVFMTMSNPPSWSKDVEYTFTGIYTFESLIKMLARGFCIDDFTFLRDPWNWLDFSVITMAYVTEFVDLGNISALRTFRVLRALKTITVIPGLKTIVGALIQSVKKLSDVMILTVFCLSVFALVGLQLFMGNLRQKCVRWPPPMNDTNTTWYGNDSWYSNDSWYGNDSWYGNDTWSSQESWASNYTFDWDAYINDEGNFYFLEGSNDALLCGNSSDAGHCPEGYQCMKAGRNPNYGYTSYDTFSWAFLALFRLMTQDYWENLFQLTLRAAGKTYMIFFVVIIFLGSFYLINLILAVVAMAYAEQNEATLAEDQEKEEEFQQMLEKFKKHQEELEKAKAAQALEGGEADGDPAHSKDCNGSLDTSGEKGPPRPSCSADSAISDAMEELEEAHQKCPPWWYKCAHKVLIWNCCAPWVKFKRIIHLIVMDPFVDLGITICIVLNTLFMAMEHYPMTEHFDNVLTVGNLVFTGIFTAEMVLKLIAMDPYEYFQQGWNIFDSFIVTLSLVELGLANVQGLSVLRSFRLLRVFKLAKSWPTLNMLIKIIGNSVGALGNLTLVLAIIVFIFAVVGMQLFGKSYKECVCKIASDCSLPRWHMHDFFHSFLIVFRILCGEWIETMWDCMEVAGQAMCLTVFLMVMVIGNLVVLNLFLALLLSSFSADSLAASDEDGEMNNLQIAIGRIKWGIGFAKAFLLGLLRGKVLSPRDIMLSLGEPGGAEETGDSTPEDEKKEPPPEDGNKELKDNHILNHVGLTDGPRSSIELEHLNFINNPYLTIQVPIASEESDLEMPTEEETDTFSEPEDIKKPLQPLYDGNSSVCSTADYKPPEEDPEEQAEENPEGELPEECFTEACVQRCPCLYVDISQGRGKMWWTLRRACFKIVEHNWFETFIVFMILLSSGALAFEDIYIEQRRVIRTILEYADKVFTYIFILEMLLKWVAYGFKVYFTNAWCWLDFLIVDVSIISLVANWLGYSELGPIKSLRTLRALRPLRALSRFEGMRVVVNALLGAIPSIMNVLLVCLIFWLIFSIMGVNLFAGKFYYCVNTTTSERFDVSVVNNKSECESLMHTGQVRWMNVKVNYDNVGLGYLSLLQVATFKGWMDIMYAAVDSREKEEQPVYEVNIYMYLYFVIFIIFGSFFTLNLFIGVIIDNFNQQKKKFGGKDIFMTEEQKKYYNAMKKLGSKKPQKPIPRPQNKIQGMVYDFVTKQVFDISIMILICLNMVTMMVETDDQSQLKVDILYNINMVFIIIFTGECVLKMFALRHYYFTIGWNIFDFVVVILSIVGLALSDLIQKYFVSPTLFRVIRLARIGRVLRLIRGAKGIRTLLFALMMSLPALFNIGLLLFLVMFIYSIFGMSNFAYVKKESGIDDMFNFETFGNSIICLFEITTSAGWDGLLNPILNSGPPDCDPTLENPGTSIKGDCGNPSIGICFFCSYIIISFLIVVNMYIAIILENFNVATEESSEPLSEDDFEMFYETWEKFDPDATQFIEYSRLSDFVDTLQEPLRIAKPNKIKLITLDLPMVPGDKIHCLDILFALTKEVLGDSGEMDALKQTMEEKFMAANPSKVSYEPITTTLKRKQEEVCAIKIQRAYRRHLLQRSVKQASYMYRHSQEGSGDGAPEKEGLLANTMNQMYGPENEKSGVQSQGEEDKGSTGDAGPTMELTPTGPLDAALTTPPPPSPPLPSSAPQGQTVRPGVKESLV

What is called melting point is the temperature, or range, at which the solid turns liquid. The inhibition is the drop in the measured response relative to a control, in per cent. What is called IC50 is the midpoint of a concentration-inhibition curve. `CN(C)CCOc1ccc(CN2C(=O)C3(COc4cc5c(cc43)OCCO5)c3ccccc32)cc1` (stereo not shown) [Example 13.4, 1′-{4-[2-(dimethylamino)ethoxy]benzyl}-2,3-dihydrospiro[furo[2,3-g][1,4]benzodioxine-8,3′-indol]-2′(1′H)-one] gave a melting point of 77 to 79 °C. In addition, the Ki in data set [1] is < 300 nM. For the same compound, at CYP3A4, the inhibition at 10 µM is > 50%. For the same compound, the IC50 in the data set on sodium channel lay within 100 to 1000 nM.
The compound `NC(=O)COc1ccc(CN2C(=O)C3(COc4cc5c(cc43)OCCO5)c3ccccc32)cc1` (stereo not shown) [Example 13.2, 2-{4-[(2′-oxo-2,3-dihydrospiro[furo[2,3-g][1,4]benzodioxine-8,3′-indol]-1′(2′H)-yl)methyl]phenoxy}acetamide] gave a melting point of 225 to 227 °C. Also, the Ki in [1] was > 300 nM. Moreover, the inhibition at 10 µM at CYP3A4 is > 50%. The IC50 in the data set on sodium channel lay in the range of 1 to 100 nM.
`NC1=N[C@H](O)[C@H]2[C@H]3O[C@]4(O)O[C@@H]([C@@H](O)[C@@]2(N1)[C@@H]4O)[C@]3(O)CO` [TTX, tetrodotoxin]: the “block of increase in [14C] guanidine influx” value is listed as “TTX partially blocked influx” at SK-N-BE2C (Nav1.8); “background was partially blocked” in data set [2]; “completely blocked using TTX” on CHO-K1 (Nav1.4); “partially blocked by TTX at 100 nM” with L6 (Nav1.4 and 1.5); “guanidine influx was completely” on PC12 (Nav1.2).
Turning to `CC(=O)N1CCN(c2ccc(OCC3COC(Cn4ccnc4)(c4ccc(Cl)cc4Cl)O3)cc2)CC1` (stereo not shown) [Ketoconazole], the “% Inhibition in 10 μM assay” value at CYP2C19 is given as 65 +/− 10%.
Take `Nc1ccc(S(=O)(=O)Nc2ccnn2-c2ccccc2)cc1` [Sulfaphenazole]: the “% Inhibition in 10 μM assay” value on CYP2C9 is listed as 50 +/− 15%.
In the case of `O=C1N(Cc2ccc(OCCO)cc2)c2ccccc2C12COc1cc3c(cc12)OCCO3` (stereo not shown) [Example 15.3, 1′-[4-(2-hydroxyethoxy)benzyl]-2,3-dihydrospiro[furo[2,3-g][1,4]benzodioxine-8,3′-indol]-2′(1′H)-one], the melting point lay within 196 to 197 °C. Also, the Ki in data set [1] is > 300 nM. The inhibition at 10 µM on CYP3A4 was < 50%.
For `CCOC(=O)COc1cccc(CN2C(=O)C3(COc4cc5c(cc43)CCO5)c3ccccc32)c1` (stereo not shown) [Example 14, ethyl {3-[(2′-oxo-5,6-dihydrospiro[benzo[1,2-b:5,4-b′]difuran-3,3′-indol]-1′(2′H)-yl)methyl]phenoxy}acetate], the melting point lay in the range of 45 to 46 °C. Also, the Ki in [1] is > 300 nM. In addition, on CYP3A4, the inhibition at 10 µM was > 50%. For the same compound, the IC50 in the data set on sodium channel fell in the range of 100 to 1000 nM.

The record behind these values is patent US8101647B2, “Spiro-oxindole compounds and their use as therapeutic agents” (Xenon Pharmaceuticals Inc., priority 2008, dated 2012).
